Test results as given in patent publication US20100297017A1, “Method for Synthesizing and Using Pegylated Peptide-Photoactive Chromophore Conjugates and Micellular Formulations Thereof” (priority 2008, published 2010).
Where two headings read alike, the source gives them in different places.

Key:
[1] = Solubility in aqueous solutions
Source text: Therefore, two different approaches for modifying the sPPp conjugate were investigated to improve its in vivo targetability.

[2] = system: A-431 human epidermoid carcinoma tumor xenografts; test: Time-coursed fluorescence imaging in tumor xenograft model with ROI analysis; type: in vivo, athymic nude mice
Procedure: ROI measurements were done using ImageJ software (Rasband 1997-2007). For FIGS. 2A and 2B, image exposure times were 0.65 seconds, whereas image exposure times in FIG. 2C were 4 seconds in order to compensate for the smaller injected dosage of PPa content.
To assess the in vivo delivery characteristics of sPPp conjugate formulations, time-coursed fluorescence imaging studies were performed in a tumor xenograft model grown in athymic nude mice. Tumor xenografts were grown subcutaneously in the left upper chest region using the A-431 human epidermoid carcinoma cell line (American Type Culture Collection, Manassas, Va.), which is ideal for EGFR-targeting studies given that these cells overexpress ˜1×10^6-2.6×10^6 EGFR/cell (Haigler, et al. (1978) Proc. Natl. Acad. Sci. USA 75:3317-21; Mendelsohn (1997) Clin. Cancer Res. 3:2703-7). When tumor sizes reached greater than ˜100 mm^3, mice were imaged pre-injection, and then free PPa or sPPp conjugate formulations that had been sterile filtered through a 0.2 micron membrane were injected via tail vein or retro-orbitally at dosages ranging from ˜10 to ˜80 nmoles PPa content per mouse (mice weighed ˜20 g) in a single bolus volume of approximately 200 microliters. A series of post-injection images were then taken over a period of time until mouse fluorescence levels approached pre-injection baseline levels. Images were acquired of the ventral surface of the animals using a custom built surface-weighted fluorescence imager with a 670 nm laser for excitation and a 685 nm long-pass emission filter for detection (Pogue, et al. (2004) Technol. Cancer Res. Treat. 3:15-21). […]
As a quantitative measure of the tumor contrast generated by the surfactant-solubilized free PPa solution and the different sPPp conjugate formulations, region of interest (ROI) mean pixel values of the tumor area and control adjacent chest area were measured from the imaging data sets.

[3] = system: A-431 human tumor xenografts; test: Preliminary tumor growth delay studies after phototherapy (Example 3, FIG. 3); type: in vivo, mice
Procedure: Mice were implanted with A-431 tumor xenografts and were administered phototherapy when their tumor sizes reached approximately 150 mm^3. Tumors were then regularly measured to determine the time it took for the tumors to reach four times their initial treatment size. To allow for easier comparisons, tumor growth delay data sets have been aligned so that the 0-day time point corresponds to a tumor volume of 150 mm^3. Diamond, control mice (no PPa or sPPp conjugate; no light), lumped data set, n=6. Squares, mice treated with 60 nmoles surfactant-solubilized free PPa in 2% ethanol/1% TWEEN 80/PBS for a ˜16 hour incubation and treated with 100 J/(cm*cm) light, n=4. Triangles, mice treated with 60 nmoles partially PEG2(20 kDa)ylated (˜63 molar %) sPPp conjugate in PBS for a ˜16 hour incubation and treated with 500 J/(cm*cm) light, n=3.
Preliminary tumor growth delay studies comparing the in vivo phototherapeutic effects of the partially PEG2(20 kDa)ylated sPPp conjugate to the gold standard surfactant-solubilized free PPa solution are shown in FIG. 3. A-431 human tumor xenografts were grown in mice as previously described, and when tumors reached ˜150 mm^3, mice were injected via the tail vein or retro-orbitally with 60 to 80 nmoles PPa content in a bolus volume of approximately 200 microliters. Sixteen hours post-injection, the entire tumor surface along with a 1-2 mm margin of skin around the tumor edge was uniformly irradiated with the expanded beam of a 670 nm laser at an incident fluence rate of ˜50 mW/cm^2. Six mice that received no injections and no irradiations served as a control group. Tumor growth delays resulting from the tumoricidal effects of the phototherapeutic treatments were determined with respect to the control group. For control mice, it took roughly 8.1 days for tumors to quadruple in size from 150 mm^3 to 600 mm^3, and for mice treated with 60 nmoles surfactant-solubilized free PPa and 100 J/cm^2 light, it took only slightly longer, 12.6±2.4 days (i.e., a tumor growth delay of ˜4.5 days compared to the control group). […]

[4] = system: EGFR-overexpressing A-431 tumor xenograft; test: Tumor growth delay photodynamic therapy (PDT) studies, single and repeat treatment (Example 4, FIGS. 4 and 5); type: in vivo, athymic NCr nu/nu mice; conditions: single PDT, 60 nmole PPa content per 20 g, 100 J/cm^2 at ~16 hours post-injection
Procedure: All formulations were administered at a dosage equivalent to 60 nmole PPa content per 20 gram body weight in a 200 μl bolus injection via the tail vein (or via retro-orbital injection when tail vein injections were not feasible). A 670 nm diode laser light dose of 100 J/cm^2, delivered at ˜50 mW/cm^2, was given at ˜16 hours post-injection over an area covering the entire tumor surface as well as a 2 to 3 mm border extending beyond the edge of the tumor. The tumor model was the EGFR-overexpressing A-431 tumor xenograft grown in athymic NCr nu/nu mice (5-week old mice from the National Cancer Institute at Frederick, Md.). Data series were plotted so that the time at which each tumor reached ˜150 mm^3 corresponds to 0 days; i.e., the approximate time at which the PDT light dose was administered.
Control experiments were also performed, which included injecting mice with the sPPp formulations but not exposing them to light.

[5] = 60 nmoles, 100 J/cm^2 light, 16 hours post-injection

Question: With `C=CC1=C(C)c2cc3[nH]c(c4c5nc(cc6[nH]c(cc1n2)c(C)c6CC)C(C)=C5C(=O)C4)C(CCC(=O)NC(CC(=O)O)C(=O)NCCCCC(N)C(=O)NCCOCCOCCOCCOCCOCCOCCOCCOCCOCCOCCOCCOCCC(=O)NCCOCCOCCOCCOCCOCCOCCOCCOCCOCCOCCOCCOCCC(N)=O)C3C` (stereo not drawn) [sPPp] as the compound, how does the “solubility in aqueous solutions” value [1] read?
Answer: Its value is “highly soluble and readily dissolved in aqueous solutions”.

Question: Which “solubility in aqueous solutions” value ([1]; aqueous solutions) does the source give for pyropheophorbide-a [free PPa] here?
Answer: The value was “required potentially harmful solubilizers to prevent the formation of large insoluble aggregates”.

Question: What about the “peak tumor area to adjacent chest area mean pixel value ratio (tumor contrast)” value ([2]; 60 nmoles PPa in 2% ethanol/1% TWEEN 80/PBS, at ~16 hours post-injection, FIG. 2A) of the same compound?
Answer: Its value is roughly 1.5.

Question: What about the “clearance from the circulation” value ([2]; A-431 tumor-bearing mice, single bolus injection, fluorescence imaging) of the same compound?
Answer: Its value is “cleared very rapidly from the circulation via the hepatobiliary system”.

Question: And the “tumor fluorescence at time of peak tumor contrast” value ([2]; FIG. 2)?
Answer: The value was “already approaching pre-injection fluorescence levels”.

Question: And the “time for tumors to quadruple in size from 150 mm^3 to 600 mm^3” value [3, 5]?
Answer: Its value is 12.6 ± 2.4 days.

Question: And the “tumor growth delay compared to the control group” value [3, 5]?
Answer: The value was roughly 4.5 days.

Question: And the lethality ([3]; irradiations performed immediately after injection)?
Answer: The lethality was “very high incidence of lethality”.

Question: And the “delay in tumor growth compared to untreated control mice” value [4]?
Answer: Its value is “no significant delay in tumor growth”.
